# Test results: PubChem BioAssay (NCI)
#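 Growth conditions: 96-well plates. Treatment: test compound, 48 hours, 5 concentrations. Analysis: linear interpolation between bracketing concentrations; unreached endpoints set to highest concentration. The concentration for 50% growth inhibition is given as GI50. Definition used: TGI = concentration required for complete inhibition of growth.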
# Experiments:
# Assay in all cases: inhibition of tumour cell growth, NCI panel, 48 h
# RPMI-8226 leukemia = test system: RPMI-8226 leukemia
# M14 melanoma = test system: M14 melanoma
# OVCAR-4 ovarian = test system: OVCAR-4 ovarian
# TK-10 renal = test system: TK-10 renal
# OVCAR-3 ovarian = test system: OVCAR-3 ovarian
# HT29 colon = test system: HT29 colon
# IGROV1 ovarian = test system: IGROV1 ovarian
# HS 578T breast = test system: HS 578T breast
# MDA-MB-435 = test system: MDA-MB-435
# MDA-MB-231 breast = test system: MDA-MB-231 breast
compound,measurement,setting,value
COC(=O)C(=O)C(C(=O)C=C(C)C)C(=O)C(=O)Nc1ccc(C)cc1C (configuration not stated),TGI,RPMI-8226 leukemia,> 100 µM
same,TGI,M14 melanoma,> 100 µM
same,TGI,OVCAR-4 ovarian,> 100 µM
same,TGI,TK-10 renal,> 100 µM
same,TGI,OVCAR-3 ovarian,> 100 µM
same,TGI,HT29 colon,> 100 µM
same,TGI,IGROV1 ovarian,> 100 µM
CCCS(=O)(=O)/C(=C(\c1ccc(Br)cc1)S(=O)(=O)CCC)c1ccc(Br)cc1,TGI,RPMI-8226 leukemia,> 10 µM
same,TGI,M14 melanoma,> 10 µM
same,TGI,OVCAR-4 ovarian,> 10 µM
same,TGI,TK-10 renal,> 10 µM
same,TGI,OVCAR-3 ovarian,> 10 µM
same,TGI,HT29 colon,> 10 µM
same,TGI,IGROV1 ovarian,> 10 µM
Cc1ccc(NC(=O)NCCCOc2ccc(N3C(N)=NC(N)=NC3(C)C)cc2Cl)cc1S(=O)(=O)F,GI50,HS 578T breast,16.7 µM
same,TGI,HS 578T breast,> 100 µM
same,GI50,RPMI-8226 leukemia,60.7 µM
same,TGI,RPMI-8226 leukemia,> 100 µM
same,GI50,M14 melanoma,7.81 µM
same,TGI,M14 melanoma,> 100 µM
same,GI50,OVCAR-4 ovarian,15.1 µM
same,TGI,OVCAR-4 ovarian,> 100 µM
same,GI50,OVCAR-3 ovarian,8.6 µM
same,TGI,OVCAR-3 ovarian,> 100 µM
same,GI50,MDA-MB-435,4.46 µM
same,TGI,MDA-MB-435,> 100 µM
same,GI50,MDA-MB-231 breast,11.4 µM
same,TGI,MDA-MB-231 breast,> 100 µM
same,GI50,IGROV1 ovarian,0.525 µM
same,TGI,IGROV1 ovarian,> 100 µM
CC(=O)O.[Au].c1ccc([PH+](c2ccccc2)c2ccccc2)cc1,GI50,RPMI-8226 leukemia,1.32 µM
same,TGI,RPMI-8226 leukemia,4.46 µM
same,GI50,M14 melanoma,1.39 µM
same,TGI,M14 melanoma,2.77 µM
same,GI50,OVCAR-4 ovarian,2 µM
same,TGI,OVCAR-4 ovarian,5.02 µM
same,GI50,TK-10 renal,2.92 µM
same,TGI,TK-10 renal,6.74 µM
same,GI50,OVCAR-3 ovarian,2.43 µM
same,TGI,OVCAR-3 ovarian,5.52 µM
same,GI50,HT29 colon,11.5 µM
same,TGI,HT29 colon,32.5 µM
same,GI50,IGROV1 ovarian,2.24 µM
same,TGI,IGROV1 ovarian,6.95 µM
Cc1nc2ccccc2c(=O)n1-c1ccccc1F,TGI,M14 melanoma,> 100 µM
same,TGI,OVCAR-4 ovarian,> 100 µM
same,TGI,TK-10 renal,> 100 µM
same,TGI,OVCAR-3 ovarian,> 100 µM
same,TGI,HT29 colon,> 100 µM
same,TGI,IGROV1 ovarian,> 100 µM
CC(C)CCCC(=O)CCCCCCC(=O)CCN(O)C(=O)C(N)CO (configuration not stated),TGI,HS 578T breast,68.8 µM
same,TGI,RPMI-8226 leukemia,57.5 µM
same,TGI,M14 melanoma,61.5 µM
same,TGI,TK-10 renal,32.2 µM
same,TGI,OVCAR-3 ovarian,41.6 µM
same,TGI,HT29 colon,43.5 µM
same,TGI,MDA-MB-435,83.6 µM
same,TGI,MDA-MB-231 breast,34.7 µM
same,TGI,IGROV1 ovarian,31.9 µM
CC(C)c1cc2c(O)c(c1)Cc1cc(C(C)C)cc(c1O)Cc1cc(C(C)C)cc(c1O)Cc1cc(C(C)C)cc(c1O)C2,TGI,RPMI-8226 leukemia,> 100 µM
same,TGI,OVCAR-4 ovarian,> 100 µM
same,TGI,TK-10 renal,> 100 µM
same,TGI,OVCAR-3 ovarian,> 100 µM
same,TGI,HT29 colon,> 100 µM
same,TGI,IGROV1 ovarian,> 100 µM
CNc1nc(N)c(N=O)c(Nc2ccc(Br)cc2)n1,TGI,HS 578T breast,65 µM
same,TGI,RPMI-8226 leukemia,> 100 µM
same,TGI,TK-10 renal,> 100 µM
same,TGI,OVCAR-3 ovarian,> 100 µM
same,TGI,HT29 colon,> 100 µM
same,TGI,MDA-MB-435,> 100 µM
same,TGI,MDA-MB-231 breast,> 100 µM
same,TGI,IGROV1 ovarian,> 100 µM
OC/C=C(\I)CCCOCOCc1ccccc1,TGI,RPMI-8226 leukemia,47.5 µM
same,TGI,M14 melanoma,> 100 µM
same,TGI,OVCAR-4 ovarian,> 100 µM
same,TGI,TK-10 renal,> 100 µM
same,TGI,OVCAR-3 ovarian,> 100 µM
same,TGI,HT29 colon,> 100 µM
same,TGI,IGROV1 ovarian,> 100 µM
N.N.O=C([O-])P(=O)([O-])[O-].[Na+].[Pt+4],GI50,RPMI-8226 leukemia,> 100 µM
same,TGI,RPMI-8226 leukemia,> 100 µM
same,GI50,M14 melanoma,> 100 µM
same,TGI,M14 melanoma,> 100 µM
same,GI50,OVCAR-4 ovarian,> 100 µM
same,TGI,OVCAR-4 ovarian,> 100 µM
same,GI50,TK-10 renal,> 100 µM
same,TGI,TK-10 renal,> 100 µM
same,GI50,OVCAR-3 ovarian,> 100 µM
same,TGI,OVCAR-3 ovarian,> 100 µM
same,GI50,IGROV1 ovarian,> 100 µM
same,TGI,IGROV1 ovarian,> 100 µM
COC(=O)c1cc(C)c(C)c2c1NC(=O)CNC2=O,TGI,RPMI-8226 leukemia,> 100 µM
same,TGI,M14 melanoma,> 100 µM
same,TGI,OVCAR-4 ovarian,> 100 µM
same,TGI,OVCAR-3 ovarian,> 100 µM
same,TGI,HT29 colon,> 100 µM
same,TGI,IGROV1 ovarian,> 100 µM
N#C/C(=C\c1cc2ccccc2c2ccccc12)c1ccccc1,TGI,RPMI-8226 leukemia,> 51.1 µM
same,TGI,M14 melanoma,30 µM
same,TGI,OVCAR-4 ovarian,34.6 µM
same,TGI,TK-10 renal,> 58.9 µM
same,TGI,OVCAR-3 ovarian,> 25.6 µM
same,TGI,HT29 colon,18.1 µM
same,TGI,IGROV1 ovarian,> 51.8 µM
c1cc[c]([Pb]([c]2ccccc2)[c]2ccccc2)cc1,GI50,RPMI-8226 leukemia,14.5 µM
same,TGI,RPMI-8226 leukemia,90 µM
same,GI50,M14 melanoma,14.2 µM
same,TGI,M14 melanoma,47.4 µM
same,GI50,OVCAR-4 ovarian,22 µM
same,TGI,OVCAR-4 ovarian,> 100 µM
same,GI50,OVCAR-3 ovarian,10.4 µM
same,TGI,OVCAR-3 ovarian,23.8 µM
same,GI50,HT29 colon,16.4 µM
same,TGI,HT29 colon,49.6 µM
same,GI50,IGROV1 ovarian,10 µM
same,TGI,IGROV1 ovarian,32 µM
CC1(C)N=C(N)N=C(N)N1c1ccc(OCc2ccc(S(=O)(=O)F)c(Cl)c2)c(Cl)c1,GI50,RPMI-8226 leukemia,> 100 µM
same,TGI,RPMI-8226 leukemia,> 100 µM
same,GI50,M14 melanoma,1.52 µM
same,TGI,M14 melanoma,> 100 µM
same,GI50,OVCAR-4 ovarian,17.5 µM
same,TGI,OVCAR-4 ovarian,> 100 µM
same,GI50,TK-10 renal,59.2 µM
same,TGI,TK-10 renal,> 100 µM
same,GI50,OVCAR-3 ovarian,4.69 µM
same,TGI,OVCAR-3 ovarian,> 100 µM
same,GI50,HT29 colon,0.845 µM
same,TGI,HT29 colon,> 100 µM
same,GI50,MDA-MB-435,0.558 µM
same,TGI,MDA-MB-435,> 100 µM
same,GI50,MDA-MB-231 breast,> 100 µM
same,TGI,MDA-MB-231 breast,> 100 µM
same,GI50,IGROV1 ovarian,0.123 µM
same,TGI,IGROV1 ovarian,> 100 µM
CCc1oc2ccccc2c1C(=O)c1cc(I)c(O)c(I)c1,GI50,HS 578T breast,2.22 µM
same,TGI,HS 578T breast,7.41 µM
same,GI50,RPMI-8226 leukemia,2.33 µM
same,TGI,RPMI-8226 leukemia,30.5 µM
same,GI50,M14 melanoma,1.24 µM
same,TGI,M14 melanoma,5.3 µM
same,GI50,OVCAR-4 ovarian,5.07 µM
same,TGI,OVCAR-4 ovarian,18.1 µM
same,GI50,TK-10 renal,9.81 µM
same,TGI,TK-10 renal,23.4 µM
same,GI50,OVCAR-3 ovarian,2.04 µM
same,TGI,OVCAR-3 ovarian,5.12 µM
same,GI50,HT29 colon,3.61 µM
same,TGI,HT29 colon,14.5 µM
same,GI50,MDA-MB-435,0.327 µM
same,TGI,MDA-MB-435,1.4 µM
same,GI50,MDA-MB-231 breast,5.64 µM
same,TGI,MDA-MB-231 breast,20.8 µM
C/C(=N\Nc1ccc(Cl)cn1)c1ccccn1,GI50,HS 578T breast,0.616 µM
same,TGI,HS 578T breast,> 73.8 µM
same,GI50,RPMI-8226 leukemia,0.0572 µM
same,TGI,RPMI-8226 leukemia,12.3 µM
same,GI50,OVCAR-4 ovarian,0.0485 µM
same,TGI,OVCAR-4 ovarian,> 59.4 µM
same,GI50,TK-10 renal,2.06 µM
same,TGI,TK-10 renal,97.7 µM
same,TGI,OVCAR-3 ovarian,14.9 µM
same,GI50,HT29 colon,< 0.0419 µM
same,TGI,HT29 colon,> 59.9 µM
same,GI50,MDA-MB-435,0.382 µM
same,TGI,MDA-MB-435,> 100 µM
same,GI50,MDA-MB-231 breast,0.0652 µM
same,TGI,MDA-MB-231 breast,> 100 µM
same,GI50,IGROV1 ovarian,0.0823 µM
same,TGI,IGROV1 ovarian,38.1 µM
CC(=O)N1C/C(=C\c2ccc(N(C)C)cc2)C(=O)/C(=C/c2ccc(N(C)C)cc2)C1,TGI,RPMI-8226 leukemia,> 100 µM
same,TGI,M14 melanoma,> 100 µM
same,TGI,OVCAR-4 ovarian,> 100 µM
same,TGI,TK-10 renal,> 100 µM
same,TGI,OVCAR-3 ovarian,56.3 µM
same,TGI,HT29 colon,> 100 µM
same,TGI,IGROV1 ovarian,> 100 µM
CCCCOC(=O)NC(=O)c1cn(C2CCCCC2)c(=O)[nH]c1=O,TGI,RPMI-8226 leukemia,> 100 µM
same,TGI,M14 melanoma,> 100 µM
same,TGI,OVCAR-4 ovarian,48.6 µM
same,TGI,TK-10 renal,> 100 µM
same,TGI,OVCAR-3 ovarian,> 100 µM
same,TGI,HT29 colon,> 100 µM
same,TGI,IGROV1 ovarian,> 100 µM
O=C(O)[C@@H]1CCCCN1Cc1cc2cc3c(cc2c2cc(OCc4ccccc4)ccc12)OCO3,GI50,HS 578T breast,2.29 µM
same,TGI,HS 578T breast,6.94 µM
same,GI50,RPMI-8226 leukemia,24 µM
same,TGI,RPMI-8226 leukemia,77.4 µM
same,GI50,M14 melanoma,16.5 µM
same,TGI,M14 melanoma,30.4 µM
same,GI50,TK-10 renal,3.36 µM
same,TGI,TK-10 renal,> 100 µM
same,GI50,OVCAR-3 ovarian,6.79 µM
same,TGI,OVCAR-3 ovarian,36.2 µM
same,GI50,HT29 colon,3.24 µM
same,TGI,HT29 colon,15.8 µM
same,GI50,MDA-MB-435,3.4 µM
same,TGI,MDA-MB-435,17.5 µM
same,GI50,MDA-MB-231 breast,1.9 µM
same,TGI,MDA-MB-231 breast,6.21 µM
same,GI50,IGROV1 ovarian,6.53 µM
same,TGI,IGROV1 ovarian,21.4 µM
